Measurements published in the NIST ThermoML archive (doi:10.1016/j.fluid.2008.04.016).
“And” between values parts separate entries of the source, which are not always exact repeats. Identical values can stand only once.

Conditions: Liquid

CC(c1ccccc1)C(C)(C)C (stereo unspecified) [(1,2,2-trimethylpropyl)benzene]
Transpiration method
Conditions | vapor or sublimation pressure [kPa]
296 K | 0.04082
298.5 K | 0.04885
301 K | 0.05923
303.5 K | 0.07018
305.9 K | 0.08326
308.4 K | 0.09874
310.9 K | 0.1175
313.4 K | 0.1378
315.9 K | 0.1579
318.3 K | 0.185
320.8 K | 0.2193
323.3 K | 0.2551
325.8 K | 0.292

CC(C)(C)c1ccc(C(C)(C)C)cc1 [1,4-bis(1,1-dimethylethyl)benzene]
Transpiration method
Conditions | vapor or sublimation pressure [kPa]
354.15 K | 0.3792
356.45 K | 0.4257
358.95 K | 0.4877
361.75 K | 0.5742
364.25 K | 0.6537
366.45 K | 0.7231
366.55 K | 0.7158
369.15 K | 0.8057
372.05 K | 0.9399
374.15 K | 1.036
376.45 K | 1.171
379.75 K | 1.376
381.75 K | 1.507
383.25 K | 1.647

CC(C)(C)c1cc(C(C)(C)C)cc(C(C)(C)C)c1 [1,3,5-tri-tert-butylbenzene]
Transpiration method
Conditions | vapor or sublimation pressure [kPa]
352.15 K | 0.1311
354.45 K | 0.1544
356.65 K | 0.1766
358.95 K | 0.2039
359.15 K | 0.2029
361.35 K | 0.2292
362.05 K | 0.2407
363.45 K | 0.2577
365.15 K | 0.2888
367.45 K | 0.3257
370.15 K | 0.3801
372.65 K | 0.4354
374.95 K | 0.4944
377.35 K | 0.5671
379.55 K | 0.6317
382.65 K | 0.7387

Cc1cc(C(C)(C)C)cc(C(C)(C)C)c1 [3,5-di-tert-butyltoluene]
Transpiration method
Conditions | vapor or sublimation pressure [kPa]
308.25 K | 0.01666
310.65 K | 0.01931
313.35 K | 0.02366
315.45 K | 0.02884
317.95 K | 0.03401
320.45 K | 0.04037
323.05 K | 0.04906
325.55 K | 0.05841
327.95 K | 0.06909
330.55 K | 0.08097
333.05 K | 0.09656
335.55 K | 0.1131
338.15 K | 0.1302
340.65 K | 0.1549
343.05 K | 0.1773
345.55 K | 0.2067
348.1 K | 0.2475
350.45 K | 0.2845
353.05 K | 0.3277
355.65 K | 0.3743
358.15 K | 0.4358

Conditions | vapor or sublimation pressure
379.62 K | 1.318 kPa
379.86 K | 1.338 kPa
380.13 K | 1.358 kPa
393.09 K | 2.478 kPa
393.16 K | 2.483 kPa
393.19 K | 2.483 kPa
393.25 K | 2.488 kPa
402.75 K | 3.746 kPa
402.76 K | 3.746 kPa
402.77 K | 3.746 kPa
410.74 K | 5.173 kPa
410.81 K | 5.179 kPa
410.83 K | 5.184 kPa
410.85 K | 5.189 kPa
428.47 K | 10.05 kPa
428.48 K | 10.05 kPa
439.99 K | 14.94 kPa
440 K | 14.94 kPa
449.13 K | 20.06 kPa and 20.07 kPa
449.14 K | 20.06 kPa
449.15 K | 20.07 kPa
449.2 K | 20.09 kPa
449.21 K | 20.09 kPa
449.22 K | 20.1 kPa
456.12 K | 24.89 kPa
456.13 K | 24.89 kPa
456.14 K | 24.89 kPa
462.5 K | 30.11 kPa
462.52 K | 30.11 kPa
467.98 K | 35.24 kPa
472.54 K | 40.02 kPa
478.05 K | 46.5 kPa
478.06 K | 46.5 kPa
482.73 K | 52.54 kPa and 52.65 kPa and 52.66 kPa
482.76 K | 52.69 kPa
482.77 K | 52.7 kPa
487.56 K | 59.65 kPa
487.57 K | 59.67 kPa
487.58 K | 59.69 kPa
491.67 K | 66.2 kPa and 66.19 kPa
491.68 K | 66.21 kPa
495.5 K | 72.78 kPa
495.53 K | 72.83 kPa
498.98 K | 79.21 kPa
498.99 K | 79.22 kPa
503.36 K | 87.92 kPa and 87.93 kPa
505.71 K | 92.91 kPa
505.72 K | 92.91 kPa
508.06 K | 98.13 kPa
508.07 K | 98.13 kPa
508.08 K | 98.17 kPa
508.09 K | 98.18 kPa
509.38 K | 101.13 kPa and 101.14 kPa and 101.15 kPa
509.93 K | 102.44 kPa
509.94 K | 102.45 kPa
510.55 K | 103.88 kPa
510.56 K | 103.87 kPa and 103.88 kPa
